Results published in article PMC13233820, “Recruitment of Mre11 to recombination sites during meiosis” (Nature Communications, 2026).

Assays:
Smt3 = target: T1, Smt3 (Saccharomyces cerevisiae, UniProt Q12306); assay: Isothermal titration calorimetry, SIM3 peptides on Smt3; format: binding; conditions: 2 mM peptide in syringe, 20 mM NaPi 100 mM NaCl pH 7.5, 10% DMSO, 25 °C
T1 construct: 6xHis (C); made in house; host or cells: E. coli BL21 (DE3)pLysS
Protocol: The syringe contained 2 mM of peptide, while the cell held 150 µM or 300 µM of protein. […] For the ITC titrations, equal amounts of DMSO (10%) were included in both compartments to minimize the heat of dilution. Each titration consisted of a first injection of 0.4 µL, followed by 12-13 injections of 2 µL peptide into the cell, separated by intervals of 120 s. The first injection was discarded during the analysis of the data. The wild-type peptide titration on Smt3 was performed in duplicate. The Microcal LLC ITC200 Origin software was used to fit the data to a single binding site model.

U-[13C,15N] Smt3 = assay: NMR chemical shift perturbation, SIM3 peptides with Smt3; format: binding, Saccharomyces cerevisiae; conditions: 1.2 molar equivalents of peptide, 0.3 mM Smt3, 20 mM sodium phosphate, 20 mM NaCl pH 6.5, 298 K
Protocol: The samples contained 0.3–0.6 mM of U-[^13C,^15N] […] All NMR spectra were acquired at 298 K on a Bruker Avance III HD 800 MHz spectrometer, equipped with a TCI cryoprobe. The NMR data were acquired in TopSpin 3.6 (Bruker) and processed in NMRPipe v.7.5[76] and analyzed in CCPNMR v. 2.4.2[77]. Assignments of Smt3 backbone amide resonances were taken from literature[78] and verified by 3D HNCACB, HN(CO)CACB, and ^15N-edited NOESY-HSQC (mixing time 100 ms) spectra. Further assignments of methyl resonances were obtained from [^1H, ^13C] […] The assigned ^1H, ^13C and ^15N chemical shifts of the free and bound Smt3 have been deposited in the Biological Magnetic Resonance Bank (http://www.bmrb.wisc.edu/) under the accession number 53209.
The NMR binding experiments were performed by an incremental addition of wild-type or mutant SIM peptides (1.2 mM stocks in the working buffer) to 0.3 mM samples of U-[^13C,^15N] Smt3, with the spectral changes monitored in [^1H,^15N] HSQC spectra acquired at each increment and [^1H, ^13C] […] The average chemical shift perturbations (Δδavg) were calculated as Δδavg = (ΔδX^2/n + ΔδH^2/2)^0.5, where ΔδX and ΔδH are the chemical shift changes of the backbone amide nitrogens or methyl carbons (ΔδX) and protons (ΔδH) of Smt3 residues upon addition of 1.2 molar equivalents of SIM peptides, and n = 50 or 9 for the backbone amide and methyl groups, respectively.

T1 sequence (Q12306 whole entry): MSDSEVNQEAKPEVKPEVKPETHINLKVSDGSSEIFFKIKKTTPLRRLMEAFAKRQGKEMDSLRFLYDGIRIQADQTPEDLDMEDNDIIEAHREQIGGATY

Sequence	ITC interaction with Smt3 (Smt3)	Average backbone amide chemical shift perturbation of Smt3 (in words) (U-[13C,15N] Smt3)
ENDAIAVSTDE [mutant SIM3 peptide, SIM3 peptide with I633 and M635 mutated to alanine]	failed to interact with Smt3	
ENDIIMVSTDE [wild-type SIM3 peptide]		induced strong backbone amide chemical shift to Smt3 residues I35, F36, F37, K38, I39 and R46
